Assay [1] addresses T1, recombinant human mPGES-1 (Homo sapiens, UniProt O14684).
T1 sequence (O14684 1-152): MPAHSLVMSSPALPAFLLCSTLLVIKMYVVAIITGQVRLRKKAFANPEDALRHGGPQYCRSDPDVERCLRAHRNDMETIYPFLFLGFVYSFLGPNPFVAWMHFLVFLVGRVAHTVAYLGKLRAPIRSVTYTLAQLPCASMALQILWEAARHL
Put plainly: Assay A: mPGES-1 enzyme assay (HTRF detection of PGE2). Format: biochemical. The note with it: biological assay A (compounds 1-41, 54, 55, 62, 73); PGE2 formation from PGH2, HTRF; read-out: mPGES-1 inhibitory effect IC50. The text has this: Assay A: mPGES-1 Enzyme Assay
The basis of the assay used is to measure the inhibition of microsomal prostaglandin E2 synthase-1 (mPGES-1) dependent prostaglandin (PG) E2 formation from PGH2 by different compounds. Thus, the formation of PGE2 is used as signal and a lowering of this signal can be interpreted as inhibition of mPGES-1. Similar assays to measure inhibition of mPGES-1 have previously been described in the literature.
• Glutathione (Sigma, G-4251) • Freeze culture in Rosetta E coli expression strain. • LB growth media with Ampillicillin (Amp) final concentration in culture 50 μg/mL • Chloroamphenicol stock 34 mg/mL (chloro) final concentration in culture 34 μg/mL • Sterile growth flasks for 500 mL-1 liter cultures • 0.1 M KPi buffer pH 7.4 • 9.25% HCl • PGH2 (0.25 mM) • Fe (II) Cl2 tetrahydrate, 99% (Sigma, 220229) • 384-well plate with compounds • 96-well plate, polypropylene (Thermo fast 96 skirted VWR) • 384-well plate polypropylene PCR plate (Greiner 785201) • Greiner 384-well plate pp (In vitro cat. no. 781280) • Adhesive sealing film for 96-well plates (Sigma-Aldrich) • Aluminium foil (PCR foil, 310-0030-127-471 from Labora) • PBS (GIBCO 14040) • Prostaglandin E2 Assay (Cisbio, cat. no. 62P2APEC) • Biomek FX robot (Beckman Coulter) • Biomek NX robot (Beckman Coulter) • Multidrop; micro or combi (ThermoLabsystems) • Plate reader: Safire2 (Tecan)
Microsomes from Rosetta E. coli bacteria expressing recombinant human mPGES-1 can be derived as described below:
Inoculate 5 mL LB with Amp and Chloro with bacteria from freeze culture. Incubate over night at 37° C. with 200 rpm. Thereafter, inoculate 500-800 mL LB containing Amp and Chloro with the 5 mL on culture and grow to OD640 of 0.6-0.8. Chill the culture to +4° C. before induction. Induce the culture with IPTG at a final concentration of 400 μM. Express the protein at room temp 18-23° C. with 200 rpm shaking over night.
The following steps can be performed on the following day: • 1. Spin down the cells in 250 mL centrifuge flasks for 15 min at 7000 rpm • 2. Dissolve the pellet from 250 mL culture in 12.5 mL homogenization buffer • 3. Disintegrate the cells by sonication, 4×10 seconds at 35% amplitude • 4. Add 2.5 mL MgCl2 (100 mM) and DNase 12.5 μL (0.8 mg/mL) and incubate on ice for 30 min • 5. Spin down the bacteria debris and save the supernatant, 7000 rpm for 15 min • 6. Isolate the protein containing membranes in the supernatant by ultracentrifugation 45000×g for 1 hour. • 7. Discard the supernatant and dissolve the pellet in 20 mM KPi buffer and aliquot the enzyme and store aliquots at −80° C.
Before each experiment is performed an aliquot of the enzyme is thawed and it can then be dissolved in 0.1 M KPi pH 7.4 buffer containing 2.5 mM GSH. 50 μL of this enzyme solution is subsequently dispensed in a 384-well plate at room temperature. 0.5 μL of the inhibitor dissolved in DMSO is thereafter added to each well and incubated for 25 minutes at room temperature. Subsequently, 2 μL of PGH2 dissolved in an appropriate solvent is added to each well and after one minute at room temperature, the acidified stop solution containing FeCl2 is added. 4 μL of the total volume is transferred to a separate plate and diluted 750-fold in two separate steps before quantification of PGE2.
In order to quantitate the amount of PGE2 that has been formed, a homogenous time resolved fluorescent (HTRF) detection of PGE2 can be performed by the use of a commercially available kit from CisBio essentially according to the manufacturer's protocol. […]
On the technique in general: In TR-FRET formats the signal depends on donor and acceptor labels being close together.

For assay [2], the target named is T1, recombinant human mPGES-1. Put plainly: Assay B: mPGES-1 enzyme assay (modified). Format: biochemical. Conditions: biological assay B (all other compounds); PGH2 final conc. 2 μM, HTRF; read-out: mPGES-1 inhibitory effect IC50. In outline:
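Microsomal recombinant human mPGES-1 preincubated 25 min at room temperature with compound in pH 7.4 phosphate buffer containing 2.5 mmol/L GSH; reaction started with 2 μM PGH2 (final), stopped with FeCl2 after 60 s. PGE2 quantified by HTRF against calibration curve; IC50 by nonlinear regression after background subtraction.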

As usually defined, the IC50 is the midpoint of a concentration-inhibition curve.

Consider `CC(C)(C)C(=O)NCc1ccc(Cl)c(C(=O)Nc2ccc(Cl)c(C(=O)Nc3ccc(Br)cc3)c2)c1` [Example 3, N-[4-Chloro-3-(4-bromophenyl)aminocarbonyl-phenyl]-2-chloro-5-(tert-butylcarbonylamino)methyl-benzamide], for which the IC50 in assay [1] is 22 nM.

As to `Cc1ccc(NC(=O)c2cc(CNC(=O)C(C)(C)C)ccc2Cl)cc1C(=O)Nc1ccc(Br)cc1` [Example 55, N-[4-Methyl-3-(4-bromophenyl)aminocarbonyl-phenyl]-2-chloro-5-(tert-butylcarbonylamino)methyl-benzamide], the half-maximal inhibitory concentration (IC50) in assay [1] is 59 nM.

Regarding `CC(C)(C)C(=O)NCc1ccc(Cl)c(C(=O)Nc2ccc(OCC(F)F)c(C(=O)NCC#Cc3ccccc3)c2)c1` [Example 40], the IC50 in assay [1] stood at 5 nM.

`COc1ccc(NC(=O)c2cc(CNC(=O)C(C)(C)C)ccc2Cl)cc1C(=O)NCc1ccccc1C(F)(F)F` [Example 16]: the IC50 in assay [1] was found to be 14 nM.

Consider `CC(C)(C)C(=O)NCc1ccc(Cl)c(C(=O)Nc2ccc(OCC(F)F)c(C(=O)NCC3CC3(C)C)c2)c1` (stereo not shown) [Example 14], for which the IC50 in assay [1] is 4 nM.

Take `COc1ccc(NC(=O)c2cc(CNC(=O)C(C)(C)C)ccc2Cl)cc1C(=O)NC1CCCCC1` [Example 17]: the IC50 in assay [1] was 16 nM.

As for `CNC(=O)c1cc(NC(=O)c2cc(CNC(=O)C3(C)CCCCC3)ccc2C)ccc1Cl` [Example 1, N-(4-Chloro-3-methylaminocarbonyl-phenyl)-2-methyl-5-[(1-methylcyclohexylcarbonylamino)methyl]-benzamide], the IC50 in assay [1] was ~1600 nM.

Regarding `CC(C)(C)C(=O)NCc1ccc(Cl)c(C(=O)Nc2ccc(OCC(F)F)c(C(=O)N[C@H]3CC[C@H](C(F)(F)F)CC3)c2)c1` [Example 5, N-[4-(2,2-Difluoroethyl)oxy-3-[trans-(4-trifluoromethyl-cyclohexyl)amino]carbonyl-phenyl]-2-chloro-5-(tert-butylcarbonylamino)methyl-benzamide], the IC50 in assay [1] stood at 2 nM.

Turning to `COc1ccc(NC(=O)c2cc(CNC(=O)C(C)(C)C)ccc2Cl)cc1C(=O)Nc1cc(C(F)(F)F)ccn1` [Example 8, N-[4-Methoxy-3-(4-trifluoromethyl-pyridin-2-yl)aminocarbonyl-phenyl]-2-chloro-5-(tert-butylcarbonylamino)methyl-benzamide], in assay [1], the half-maximal inhibitory concentration (IC50) was determined as 7 nM.

On to `CC(C)(C)C(=O)NCc1ccc(Cl)c(C(=O)Nc2ccc(OCC(F)(F)F)c(C(=O)NCC3CC3)c2)c1` [Example 41], for which, in assay [1], the IC50 was found to be 3 nM.

In the case of `CC1CCN(c2ccc(NC(=O)c3cc(CNC(=O)C(C)(C)C)ccc3Cl)cc2C(=O)Nc2ccc(Br)cc2)CC1` [Example 37, N-[4-(4-Methyl-piperidin-1-yl)-3-(4-bromophenyl)aminocarbonyl-phenyl]-2-chloro-5-(tert-butylcarbonylamino)methyl-benzamide], the IC50 in assay [1] came to 1 nM.

Regarding `CC(C)(C)C(=O)NCc1ccc(Cl)c(C(=O)Nc2ccc(OCC(F)F)c(C(=O)Nc3ccc(F)c(Cl)c3)c2)c1` [Example 7, N-[4-(2,2-Difluoroethyl)oxy-3-(4-fluoro-3-chloro-phenyl)aminocarbonyl-phenyl]-2-chloro-5-(tert-butylcarbonylamino)methyl-benzamide], the IC50 in assay [1] is 4 nM.

Consider `CC(C)(C)C(=O)NCc1ccc(Cl)c(C(=O)Nc2ccc(OCC(F)(F)F)c(C(=O)N[C@H]3CC[C@H](C(F)(F)F)CC3)c2)c1` [Example 11], for which the IC50 in assay [1] amounted to 4 nM.

For `COc1ccc(NC(=O)c2cc(CNC(=O)c3c(F)ccc(F)c3Cl)ccc2Cl)cc1C(=O)Nc1ccc(Br)cc1` [Example 23], in assay [1], the IC50 was 1 nM.

Regarding `COc1ccc(NC(=O)c2cc(CNC(=O)C(C)(F)F)ccc2Cl)cc1C(=O)Nc1ccc(Br)cc1` [Example 30], in assay [1], the IC50 came to 1 nM.

For the molecule `CC(C)(C)C(=O)NCc1ccc(Cl)c(C(=O)Nc2ccc(Cl)c(C(=O)NC3CC3)c2)c1` [Example 20], the IC50 in assay [1] is ~3000 nM.

Take `CC(C)(C(=O)NCc1ccc(Cl)c(C(=O)Nc2ccc(OCC(F)F)c(C(=O)Nc3ccc(Cl)c(F)c3)c2)c1Cl)C(F)(F)F` [Example 156]: the IC50 in assay [2] is 1 nM.

As to `CC(C)(C#N)C(=O)NCc1ccc(Cl)c(C(=O)Nc2ccc(OCC(F)F)c(C(=O)Nc3ccc(Br)cc3)c2)c1` [Example 165], in assay [2], the concentration for half-maximal inhibition (IC50) was 8 nM.

In the case of `CC(C)(C(=O)NCc1ccc(Cl)c(C(=O)Nc2ccc(OCC(F)F)c(C(=O)NCc3ccccc3C(F)(F)F)c2)c1)C(F)(F)F` [Example 84], the IC50 in assay [2] worked out at 6 nM.

Regarding `CC(NC(=O)c1cc(NC(=O)c2c(Cl)ccc(CNC(=O)C(C)(C)C(F)(F)F)c2Cl)ccc1OCC(F)F)C1CC1` (stereo not shown) [Example 148], the IC50 in assay [2] came to 1 nM.

As for `CC(C)(C(=O)NCc1ccc(Cl)c(C(=O)Nc2ccc(OCC(F)F)c(C(=O)Nc3ccc(F)c(Cl)c3F)c2)c1)C(F)(F)F` [Example 134], the half-maximal inhibitory concentration (IC50) in assay [2] came out at 7 nM.

Consider `CC(C)(C(=O)NCc1ccc(Cl)c(C(=O)Nc2ccc(OC3CCOC3)c(C(=O)N[C@H]3CC[C@H](C(F)(F)F)CC3)c2)c1)C(F)(F)F` (stereo partly shown) [Example 67], for which the IC50 in assay [2] was 5 nM.

Regarding `CC(C)(C(=O)NCc1ccc(Cl)c(C(=O)Nc2ccc(OCC(F)F)c(C(=O)Nc3nc4ccc(Cl)cc4s3)c2)c1)C(F)(F)F` [Example 93], in assay [2], the half-maximal inhibitory concentration (IC50) came to 7 nM.

Take `CC(NC(=O)c1cc(NC(=O)c2c(Cl)ccc(CNC(=O)C(C)(C)C(F)(F)F)c2Cl)ccc1OCC(F)F)C(F)(F)F` (stereo not shown) [Example 159]: the IC50 in assay [2] turned out to be 7 nM.

On to `CC(C)(C(=O)NCc1ccc(Cl)c(C(=O)Nc2ccc(N3CCC(C(F)(F)F)CC3)c(C(=O)NCC3CC3)c2)c1Cl)C(F)(F)F` [Example 59, N-[4-(4-Trifluoromethyl-piperidin-1-yl)-3-(cyclopropylmethyl)aminocarbonyl-phenyl]-2,6-dichloro-3-[(2,2,2-trifluoro-1,1-dimethyl-ethyl)carbonylamino]methyl-benzamide], for which, in assay [2], the IC50 turned out to be 5 nM.

For the molecule `COCCOc1ccc(NC(=O)c2cc(CNC(=O)C(C)(C)C)ccc2Cl)cc1C(=O)N[C@H]1CC[C@H](C(F)(F)F)CC1` [Example 71], in assay [2], the concentration for half-maximal inhibition (IC50) amounted to 10 nM.

On to `CNC(=O)c1cc(NC(=O)c2cc(CNC(=O)C(C)(C)C(F)(F)F)ccc2Cl)ccc1OCC(F)F` [Example 97], for which the IC50 in assay [2] worked out at 79 nM.

Turning to `CC(C)(C(=O)NCc1ccc(Cl)c(C(=O)Nc2ccc(OCC(F)F)c(C(=O)NCC(F)(F)F)c2)c1Cl)C(F)(F)F` [Example 147], the IC50 in assay [2] was 8 nM.

For `O=C(Nc1ccc(Br)cc1)c1cc(NC(=O)c2c(F)ccc(CNC(=O)C(F)(F)F)c2Cl)ccc1OCC(F)F` [Example 43, N-[4-(2,2-Difluoroethyl)oxy-3-(4-bromophenyl)aminocarbonyl-phenyl]-6-fluor-2-chlor-3-(trifluormethylcarbonylamino)methyl-benzamide], the 50% inhibitory concentration (IC50) in assay [2] came to 120 nM.

Turning to `CC(C)(C(=O)NCc1ccc(Cl)c(C(=O)Nc2ccc(OCC(F)F)c(C(=O)NCc3ccccc3OC(F)(F)F)c2)c1)C(F)(F)F` [Example 132], the concentration for half-maximal inhibition (IC50) in assay [2] came to 6 nM.

With `CC(C(=O)NCc1ccc(Cl)c(C(=O)Nc2ccc(OCC(F)F)c(C(=O)Nc3ccc(Br)cc3)c2)c1)N1CCCC1` (stereo not shown) [Example 170], the IC50 in assay [2] came out at 50 nM.

The record behind these values is patent US8951999B2, “Compounds” (Orexo AB, priority 2009, dated 2015).
